In patent US20230119479A1, “A HISTONE DEACETYLASE INHIBITOR HAVING A NITROGEN-CONTAINING AROMATIC HETEROCYCLYL GROUP” (SHIONOGI & CO., LTD., priority 2019, published 2023):

Legend:
[1] = BA test (oral absorption); format: in vivo; details: plasma; mice or rats; oral vs intravenous administration
Procedure: Materials and methods for experiments to evaluate oral absorption (1) Experimental animals: mice or rats were used. (2) Rearing condition: mice or rats were allowed free access to solid feed and sterilized tap water. (3) Setting of dosage and grouping: Oral administration and intravenous administration were performed with the predetermined dosage. Grouping was set as below. (Dosage was changed per compound)
Oral administration 2 to 60 μmol/kg or 1 to 30 mg/kg (n=2 to 3)
Intravenous administration 1 to 30 μmol/kg or 0.5 to 10 mg/kg (n=2 to 3)
(4) Preparation of administration solutions: Oral administration was performed as suspension or solution. Intravenous administration was performed after solubilization. (5) Routes of administration: Oral administration was performed mandatory into the stomach by oral sonde. Intravenous administration was performed from caudal vein by syringes with needle. (6) Evaluation items: Blood was collected serially and concentration of a compound of the present invention in plasma was measured by LC/MS/MS. (7) Statistical analysis: About transition of concentration of a compound of the present invention in plasma, the area under the plasma concentration versus time curve (AUC) was calculated by non-linear least-squares method program, and bioavailability (BA) of a compound of the present invention was calculated from dosages and AUCs of the oral administration group and the intravenous administration group. The dilution concentration or the dilution solvent were changed as necessary.

[2] = target: T1, human ether-a-go-go related gene (hERG) channel (Homo sapiens, UniProt Q12809); assay: hERG test (whole cell patch clamp); format: cell-based; details: CHO cells expressing hERG; concentration not given
T1 construct: expressed in transfected cells; host or cells: CHO cells
Source text: For the purpose of assessing risk of an electrocardiogram QT interval prolongation of the compound of the present invention, effects of the compound of the present invention on delayed rectifier K^+ current (IKr), which plays an important role in the ventricular repolarization process, was studied using CHO cells expressing human ether-a-go-go related gene (hERG) channel.
After a cell was retained at a membrane potential of −80 mV by whole cell patch clamp method using an automated patch clamp system (QPatch; Sophion Bioscience A/S) and gave a leak potential of −50 mV, IKr induced by depolarization pulse stimulation at +20 mV for 2 seconds, and further, repolarization pulse stimulation at −50 mV for 2 seconds, was recorded. A vehicle, which was the 0.1% dimethyle sulfoxide solution in extracellular solution (NaCl: 145 mmol/L, KCl: 4 mmol/L, CaCl2: 2 mmol/L, MgCl2: 1 mmol/L, glucose:10 mmol/L, HEPES (4-(2-hydroxyethyl)-1-piperazineethanesulfonic acid): 10 mmol/L, pH7.4), or the compound of the present invention had been dissolved at an objective concentration in the extracellular solution was applied to the cell at room temperature for 7 minutes or more. From the recording IKr, an absolute value of the tail peak current was measured based on the current value at the resting membrane potential using analysis software (QPatch assay software; Sophion Bioscience A/S). Further, the % inhibition of tail peak current for the compound of the present invention relative to the tail peak current after application of the vehicle was calculated to assess influence of the compound of the present invention on IKr. The dilution concentration and dilution solvent were changed as necessary.

[3] = Platelet toxicity test using human blood progenitor cells (WST); format: cell-based; details: human bone marrow CD34+ progenitor cells, maximum concentration 25 μM
Procedure: Test Example 2: Platelet Toxicity Test Using Human Blood Progenitor Cells
Human bone marrow CD34+ progenitor cells (Lonza, 2M-101B) stored at −80° C. were thawed, spun down at 150 g for 10 minutes at 20° C., and a medium (StemSpan Expansion Supplement, STEM CELL TECHNOLOGIES, ST-02696) to which cytokines (StemSpan SFEM II, STEM CELL TECHNOLOGIES, ST-09655) was added was added to adjust to 2×10^4/well, the mixture was seeded in 12well non-coat dish (Corning, 3513), was incubated for 10 days at 37° C., 5% CO2. After 10 days, the cells were collected and spun down at 150 g for 10 minutes at 20° C., and a medium (StemSpan Expansion Supplement) containing cytokines (StemSpan SFEM II) was added so that the number of cells became 2×10^5 cells/ml. 50 μl of the cell suspension was seeded to each well of a 96-well plate (Corning, 3596) and allowed to stand overnight in an incubator at 37° C., 5% CO2. The next day, 50 μl of the test compound was treated to each well and allowed to stand for 48 hours in the incubator at 37° C., 5% CO2 (n=2). At this time, the test compound dissolved in 100% DMSO was serially diluted with DMSO at a 3-fold ratio, and then a medium containing cytokine was added to adjust the final concentration to 25, 8.33, 2.78, 0.93, 0.31, 0.1 μM. After that, 10 μl of WST (Cell count reagent SF, Nacalai Tesque Inc., 07553-44) was added to each well, and the mixture was allowed to stand in the incubator for 4 hours at 37° C., 5% CO2, and then the multi-label reader 2030 ARVO X4 (PerkinElmer) was used to measure the absorbance. At this time, the absorbance at 450 nm and the absorbance at 620 nm were obtained, and the difference between 450 nm and 620 nm was used as the measured value. The measured values were analyzed by Excel and TIBCO Spotfire, and IC50 values were calculated. At this time, for control (−), the well without cells was set as n=6 for one row, and the average value was calculated, and for control (+), the well in which DMSO was added to the cells so as to have the same concentration as the compound treatment group was set as n=6 for one row, and the average value was calculated and corrected for each plate. For the test compound, the average value of n=2 was used.

[4] = Metabolism stability test; format: in vitro ADME; details: human liver microsomes 0.5 mg protein/mL, 30 minutes, 37° C., NADPH
Procedure: Using commercially available pooled human hepatic microsomes, a compound of the present invention is reacted for a constant time, and a remaining rate is calculated by comparing a reacted sample and an unreacted sample, thereby, a degree of metabolism in liver is assessed.
A reaction is performed (oxidative reaction) at 37° C. for 0 minute or 30 minutes in the presence of 1 mmol/L NADPH in 0.2 mL of a buffer (50 mmol/L Tris-HCl pH 7.4, 150 mmol/L potassium chloride, 10 mmol/L magnesium chloride) containing 0.5 mg protein/mL of human liver microsomes. After the reaction, 50 μL of the reaction solution is added to 100 μL of a methanol/acetonitrile=1/1 (v/v), mixed and centrifuged at 3000 rpm for 15 minutes. The compound of the present invention in the supernatant is quantified by LC/MS/MS or Solid Phase Extraction (SPE)/MS, and a remaining amount of the compound of the present invention after the reaction is calculated, letting a compound amount at 0 minute reaction time be 100%. The hydrolysis reaction is carried out in the absence of NADPH, and the glucuronidation reaction is carried out in the presence of 5 mmol/L UDP-glucuronic acid instead of NADPH, and the same operation is carried out thereafter. The dilution concentration and dilution solvent are changed as necessary.

T1 sequence (Q12809 whole entry): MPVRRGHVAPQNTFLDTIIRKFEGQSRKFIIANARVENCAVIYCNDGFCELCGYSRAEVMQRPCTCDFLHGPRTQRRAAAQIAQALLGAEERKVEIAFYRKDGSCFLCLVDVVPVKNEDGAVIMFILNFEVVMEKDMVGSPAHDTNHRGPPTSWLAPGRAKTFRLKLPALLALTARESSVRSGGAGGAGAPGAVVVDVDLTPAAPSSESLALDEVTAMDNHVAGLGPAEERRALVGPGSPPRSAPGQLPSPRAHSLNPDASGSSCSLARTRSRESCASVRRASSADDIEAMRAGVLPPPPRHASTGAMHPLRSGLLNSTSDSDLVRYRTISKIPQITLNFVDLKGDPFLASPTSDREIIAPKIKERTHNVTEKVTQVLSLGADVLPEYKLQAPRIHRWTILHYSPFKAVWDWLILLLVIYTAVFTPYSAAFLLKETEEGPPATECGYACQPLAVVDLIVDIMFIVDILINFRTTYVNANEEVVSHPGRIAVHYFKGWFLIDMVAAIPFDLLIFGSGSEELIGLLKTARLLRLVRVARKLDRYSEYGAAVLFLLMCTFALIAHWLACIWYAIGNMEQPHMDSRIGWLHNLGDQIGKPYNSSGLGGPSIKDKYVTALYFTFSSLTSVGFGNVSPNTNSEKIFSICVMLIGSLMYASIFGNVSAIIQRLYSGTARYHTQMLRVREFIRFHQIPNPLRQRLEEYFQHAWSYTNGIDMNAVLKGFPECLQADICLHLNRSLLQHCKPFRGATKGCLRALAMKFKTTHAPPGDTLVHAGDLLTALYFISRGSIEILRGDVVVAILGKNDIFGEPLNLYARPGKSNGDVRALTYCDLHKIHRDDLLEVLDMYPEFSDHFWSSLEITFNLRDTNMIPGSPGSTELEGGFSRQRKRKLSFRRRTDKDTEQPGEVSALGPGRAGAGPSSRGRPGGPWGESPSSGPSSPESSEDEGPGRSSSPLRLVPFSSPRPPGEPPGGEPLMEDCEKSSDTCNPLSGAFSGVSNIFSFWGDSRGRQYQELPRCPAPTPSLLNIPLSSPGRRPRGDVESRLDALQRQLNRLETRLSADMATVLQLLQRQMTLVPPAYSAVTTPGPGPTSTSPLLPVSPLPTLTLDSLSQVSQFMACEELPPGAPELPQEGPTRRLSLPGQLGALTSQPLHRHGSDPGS

Row | bioavailability [1] [%] | remaining rate after reaction [4] [%] | SMILES | % inhibition of tail peak current (IKr) [2] [%] | IC50 at 48 h [3] [µM]
1 | 37.2 | 92.9 | Cn1cc(-c2ccc(N)c(NC(=O)c3cnc(C4CC4)cn3)c2)cn1 [Compound I-130] | 3.3 | > 25
2 | 38.4 | 84.8 | Cn1cc(-c2cnc(C(=O)Nc3cc(-c4ccc(F)nc4)ccc3N)cn2)cn1 [Compound I-080] | 9.5 | > 25
3 | 19.6 | 81.8 | Cn1cc(-c2cnc(C(=O)Nc3nc(-c4cccs4)ccc3N)cn2)cn1 [Compound I-017] |  | > 25
4 | 22.7 |  | CCOc1cnc(C(=O)Nc2cc(-c3ccc(F)nc3)ccc2N)cn1 [Compound I-118] | 23.3 | > 25
5 | 43.7 | 95.3 | Cn1cc(-c2cnc(C(=O)Nc3nc(-n4cccc4)ccc3N)cn2)cn1 [Compound I-023] |  | > 25
6 | 22.4 | 103 | N#Cc1ccc(C(=O)Nc2cc(-c3ccc(F)nc3)ccc2N)nc1 [Compound I-092] | 30 | > 25
7 | 32.1 | 80.4 | C[C@H](F)COc1cnc(C(=O)Nc2cc(-c3ccc(F)nc3)ccc2N)cn1 (racemic) [Compound I-125] | 18.6 | > 25
